Assay results as given in patent US20070166777A1, “Methods for detecting lp-pla2 activity and inhibition of lp-pla2 activity” (priority 2004, published 2007).

Assay: Pharmacokinetics in clinical studies, plasma level
Details: human subjects, administered in vivo in clinical studies

## CCN(CC)CCN(Cc1ccc(-c2ccc(C(F)(F)F)cc2)cc1)C(=O)Cn1c(SCc2ccc(F)cc2)nc(=O)c2c1CCC2 [Formula II, -(N-(2-(Diethylamino)ethyl)-N-(4-(4-trifluoromethylphenyl)benzyl)-aminocarbonylmethyl)-2-(4-fluorobenzyl)thio-5,6-trimethylenepyrimidin-4-one bitartrate]
  peak plasma level: 90 ng/mL
